Results as given in US12059429B2, “Hornerin: a novel non-VEGF mediated angiogenic protein expressed in both human and mouse angiogenic endothelial cells and human pancreatic cancer cells” (University of Virginia Patent Foundation, priority 2018, dated 2024).

Key:
Type in all cases: in vivo, mouse
[1] = tested on: L3.6pl PDAC cells; test: Subcutaneous L3.6pl PDAC xenograft tumor volume
Experimental: A tumor sample size of four was determined by power analysis based on prior tumor xenograft studies. For our 80% power analysis, the difference between means was 200 mm^3, standard deviation was 100 mm^3, and P-value<0.05 (P<0.05). Tumors were measured at least twice weekly until their volume was >1000 mm^3, at which point animals were euthanized. Tumor size data were collected from each tumor, with the exception of one tumor in the combination treatment experiment that was identified with 90% confidence via Grubb's Outlier Test. The following number of mice in each treatment cohort was evaluated for tumor outgrowth: (Scr siRNA/ctrl., N=15; Hrnr siRNA/ctrl., N=14; Scr siRNA/AV-951, N=8; Hrnr siRNA/AV-951, N=8).
For tumor implantation, L3.6pl cells were grown under normal culture conditions for 72 hours prior to being trypsinized and enumerated. The cells were suspended in aliquots of 500,000 cells/50 μL Hanks Balanced Salt Solution (HBSS; Corning, Manassas, VA, USA) and 50 μL of Matrigel (BD Biosciences, San Jose, CA, USA) was added to each aliquot of cells prior to implantation. The cell-Matrigel slurry was injected subcutaneously into nu/nu mice on the flanks or orthotopically into the pancreas (Seaman et al., 2011). The injection site for subcutaneous tumors was monitored daily for growth and tumor volume was calculated form caliper measurements using the formula (width^2×length)/2.
The VEGFR inhibitor AV-951 (Selleck Chemicals, Houston, TX, USA) was suspended in 0.5% methocel+0.5% Tween-20 in HBSS to increase viscosity and 50 μL of 1.0 mg/kg AV-951 or VC solution was administered once daily by oral gavage (22-gauge gavage needle (Kent Scientific, Torrington, CT, USA) connected to a 1 mL syringe). […] To prepare Hrnr siRNA and Silencer Select Negative Control #1 Scr siRNA (Invitrogen; catalog number 4390844) for injection, 10 μg of hornerin or control siRNA were combined with in vivo-jetPEI transfection reagent (Polyplus, France) in solution with 5% glucose per Polyplus instructions (total volume 50 μL). After a 30 minutes incubation, the siRNA solutions were injected slowly into the center of the tumor. A second independent hornerin knockdown experiment was conducted using a pooled set of three unique mouse Hrnr siRNA duplexes (5′-[…]-3′ (SEQ ID NO: 50); 5 ‘-[…]-3’ (SEQ ID NO: 51); 5 ‘-[…]-3’ (SEQ ID NO: 52)) and Scr siRNA (Origene, Rockville, MD, USA). The reagent preparation and injection protocol were similar to that described above.

[2] = tested on: tumor vessels; test: Tumor vessel parameters in L3.6pl tumor sections (CD34, ACTA2, RAVE analysis)
Experimental: Following completion of the treatment schedule, the mice were killed, cardiac perfused, and the tumors were excised and fixed in formalin overnight. The tumors were paraffin embedded and cut into 5 (thin) or 50 μm (thick) sections. Tumor vessel parameters were evaluated in the following number of tumors for each treatment cohort: (Scr siRNA/ctrl., N=10; Hrnr siRNA/ctrl., N=10; Scr siRNA/AV-951, N=4; Hrnr siRNA/AV-951, N=4).
Tumor sections were deparaffinized, rehydrated, heated in antigen retrieval solution (Vector), blocked for 30 minutes in blocking buffer, and incubated with anti-CD34 antibody (Abcam, ab8158, clone MEC14.7; 1:100) in blocking buffer overnight at 4° C. The sections were then incubated with goat anti-rat FITC secondary antibody (Abcam, ab6840; 1:100) in blocking buffer prior to mounting with Prolong Gold Antifade reagent (Invitrogen). Anti-actin, α-smooth muscle Cy3 antibody (Sigma, C6198, clone 1A4; 1:200) was added to the primary antibody solution if assaying for alpha-smooth muscle actin. To compare hornerin expression in vessels and tumor tissue treated with Hrnr siRNA and Scr siRNA, thin paraffin sections were deparaffinized and stained with anti-CD34 and anti-hornerin antibodies described. Images were collected using a Nikon TE 2000-E2 microscope (Nikon Instruments) equipped with a Melles Griot Argon Laser System (Melles Griot, Carlsbad, CA, USA) and a Nikon D-Eclipse C1 confocal attachment and analyzed by Measurement Tool in Image J. To measure the relative hornerin expression in tumor vessels, three vessel segments per image were isolated and their mean intensity and area were measured and recorded. A weighted mean intensity was calculated to correct for differences in selected area. To measure the relative hornerin expression in tumor tissue, the mean intensity from three square sections (75×75 pixel) of tumor tissue per image was measured and recorded.
Vessel parameters were measured using RAVE software (Seaman et al., 2011). For detection of proliferation and apoptosis, the sections were incubated with the primary antibodies anti-Ki67 (Abcam, ab15580; 1:200) or anti-cleaved caspase 3 (Cell Signaling, 9661; 1:200), respectively, overnight at 4° C. followed by incubation with anti-rabbit AF594 (Abcam, 150080; 1:200).

[3] = tested on: L3.6pl xenografts; test: Flow cytometry/FACS of tumor cell populations
Experimental: Day 10 tumors were injected with either Scr siRNA or Hrnr siRNA and excised 20 hours later. The tumors were immediately washed in PBS (+Mg/+Ca), minced with scalpels, treated with Collagenase Type II (Worthington Biochemical Corporation, Lakewood, NJ, USA; (2.0 mg/mL) serum-free DMEM, 100 minutes at 37° C.), and filtered through a 40 μm cell strainer. The cell suspension (filtrate) was incubated with the following antibody/dye panel for FACS; anti-CD45 AF488 (1:100; Biolegend, San Diego, CA, USA, 103121, clone 30-F11), anti-CD31 AF647 (1:100; Biolegend, 102415, clone 390), LIVE/DEAD violet stain (1:200; Thermo Fisher). Flow cytometry analysis was completed on the Cyan ADP LX (Beckman Coulter). Compensation and data analysis was completed using FlowJo software (Ashland, OR, USA). FACS was completed in the UVA flow cytometry core on the Influx cell sorter (BD Biosciences, Franklin Lakes, NJ, USA).

[4] = tested on: tumor vasculature; test: Photoacoustic microscopy of tumor vasculature; conditions: day 12
Source text: Using an established PAM system (Wang & Hu, 2012; Ning et al., 2015a; Ning et al., 2015b), the tumor vasculature was characterized in vivo. Two laser wavelengths, 532 and 559 nm, were used to simultaneously quantify microvascular diameter, oxygen saturation, and blood flow at the same spatial scale (Ning et al., 2015a). The applied optical energies were 100 and 75 nJ, which are below the maximum permissible exposure energy. Throughout the experiment, mice were maintained under anesthesia with 1.5% vaporized isoflurane and the body temperature was kept at 37° C. All experimental procedures were carried out in conformity with the laboratory animal protocol approved by the Animal Care and Use Committee at the University of Virginia.

[5] = L3.6pl tumors, RAVE, vs Scr siRNA
[6] = four-group combination experiment, vs control

## 5′-GCAUGGAUCUUGUUGCGGUTT-3′ [Hrnr siRNA]
[1]; intratumoral injection every other day from day 7, volume at day 13 post implantation
  tumors smaller compared to Scr siRNA-injected tumors: 2.5 fold
[1]; monotherapy or combined therapies
  reduction in tumor volume (discussion summary): two-fold
[2]; ACTA2-positive pixels / CD34-positive pixels, vs Scr siRNA
  increase in ACTA2 coverage of vessels: 2.3 fold
[2]; CD34-positive vessels per 0.4 mm^2 field, vs Scr siRNA
  number of vessels per field: not different
[2]; [5]
  fractal dimension (tortuosity): reduced
  vessel radius: overall reduction in vessel radius
  vessel volume fraction (VVF): reduced
[2]; [6]
  number of vessels per field: no change in the number of vessels per field
  vessel radii: smaller radii
[3]; FACS of tumor cell suspensions
  proportion of leukocytes (CD45+/CD31- cells): not altered
[3]; FACS, vs Scr siRNA
  proportion of endothelial cells (CD31+/CD45-): not different
[4]
  tumor blood hemoglobin levels: remained unchanged
  tumor blood oxygen saturation compared to control: 1.7 fold
